Measurements taken from ChEMBL document CHEMBL5518157, “Strategies of targeting CYP51 for IFIs therapy: Emerging prospects, opportunities and challenges” (Eur J Med Chem, 2023).
≈ marks a conversion by molar mass, not a printed value. Blank lines part the entries; values can stand above or below the molecule they belong to.

How the values were obtained:
Candida albicans [1] = test: Antifungal activity against Candida albicans SC5314 assessed as reduction in microbial growth incubated for 24 hrs by serial dilution method; assay type: functional
Trichophyton rubrum [2] = test: Antifungal activity against Trichophyton rubrum 0501124 assessed as inhibition of fungal growth incubated for 24 hrs by broth microdilution method; assay type: functional
Candida albicans [3] = test: Antifungal activity against Candida albicans assessed as reduction in microbial growth; assay type: functional
Trichophyton rubrum [4] = test: Antifungal activity against Trichophyton rubrum assessed as fungal growth inhibition incubated for 5 to 7 days by NCCLS based assay; assay type: functional; settings: time 5-7 day
Nannizzia gypsea = test: Antifungal activity against Microsporum gypseum assessed as fungal growth inhibition incubated for 48 hrs by microplate reader assay; assay type: functional
Candida albicans [5] = test: Antifungal activity against Candida albicans ATCC 76615 assessed as fungal growth inhibition incubated for 5 to 7 days by NCCLS based assay; assay type: functional; settings: time 5-7 day
Candida albicans [6] = test: Antifungal activity against Candida albicans ATCC 10231 assessed as growth inhibition measured for 24 hrs by CLSI based method; assay type: functional
Pichia kudriavzevii = test: Antifungal activity against Candida krusei ATCC 6258 assessed as reduction in fungal growth by NCCLS method; assay type: functional
Candida albicans [7] = test: Antifungal activity against Candida albicans ATCC 10231 assessed as growth inhibition measured after 48 hrs by CLSI based method; assay type: functional, organism-based; settings: ATCC 10231, 48 h
Candida albicans [8] = test: Antifungal activity against Candida albicans SC5314 assessed as reduction in fungal growth incubated for 24 hrs by serial dilution method; assay type: functional
Cytochrome P450 3A4 = Cytochrome P450 3A4 (Homo sapiens, UniProt P08684); test: Inhibition of CYP3A4 (unknown origin); assay type: ADME
[Candida] auris = Antifungal activity against Candida auris CBS 12373 assessed as reduction in microbial growth incubated for 24 hrs by serial dilution method; assay type: functional; settings: Candidozyma auris
Candida albicans [9] = test: Antifungal activity against Candida albicans ATCC 96901; assay type: functional
Candida albicans [10] = test: Antifungal activity against Candida albicans assessed as reduction in fungal growth incubated for 24 hrs by broth microdilution method; assay type: functional, organism-based
Candida albicans [11] = test: Antimicrobial activity against Candida albicans 90028 assessed as microbial growth inhibition by broth microdilution method; assay type: functional
Nakaseomyces glabratus = test: Antifungal activity against Candida glabrata ATCC 15126 assessed as reduction in fungal growth incubated for 24 hrs by CLSI based microdilution analysis; assay type: functional
Aspergillus fumigatus = test: Antifungal activity against Aspergillus fumigatus CGMCC3 7795 assessed as reduction in fungal growth incubated for 48 hrs by CLSI based microdilution analysis; assay type: functional

Chain of Cytochrome P450 3A4 (P08684 whole entry): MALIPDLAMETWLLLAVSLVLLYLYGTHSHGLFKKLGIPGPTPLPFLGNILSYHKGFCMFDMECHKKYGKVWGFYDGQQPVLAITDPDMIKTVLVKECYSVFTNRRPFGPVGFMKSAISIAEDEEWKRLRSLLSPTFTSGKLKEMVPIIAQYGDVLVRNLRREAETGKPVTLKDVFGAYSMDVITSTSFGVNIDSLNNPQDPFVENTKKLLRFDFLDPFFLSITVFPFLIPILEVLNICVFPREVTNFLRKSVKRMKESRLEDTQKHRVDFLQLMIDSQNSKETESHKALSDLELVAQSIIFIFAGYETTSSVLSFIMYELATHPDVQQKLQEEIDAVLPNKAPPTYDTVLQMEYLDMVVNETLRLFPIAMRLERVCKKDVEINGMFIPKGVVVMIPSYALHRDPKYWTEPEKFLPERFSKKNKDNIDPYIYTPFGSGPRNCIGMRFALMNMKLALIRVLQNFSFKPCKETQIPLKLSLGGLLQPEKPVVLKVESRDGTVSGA

Compound: C[C@H](NC(=O)c1ccc2ccccc2n1)C(=O)NCc1ccncc1
- MIC (Candida albicans [5]): 0.125 µg/mL (≈ 0.374 µM)

Compound: O=C(CNC(=O)c1ccc2ccccc2n1)NCc1ccncc1
- MIC (Candida albicans [5]): 0.125 µg/mL (≈ 0.39 µM)

Compound: Clc1ccc(C(Cn2ccnc2)[Se]Cc2ccccc2Cl)c(Cl)c1 (centres undefined)
- MIC (Candida albicans [6]): 0.01 µg/mL (≈ 0.0225 µM)

Compound: Fc1ccc([Se]C(Cn2ccnc2)c2ccc(F)cc2F)cc1 (centres undefined)
- MIC (Candida albicans [6]): 0.02 µg/mL (≈ 0.0525 µM)

Compound: Cc1ccccc1[Se]C(Cn1ccnc1)c1ccc(Cl)cc1 (centres undefined)
- MIC (Candida albicans [6]): 0.03 µg/mL (≈ 0.0798 µM)

Compound: Clc1ccc(C(Cn2ccnc2)[Se]C(Cn2ccnc2)c2ccc(Cl)cc2)cc1 (centres undefined)
- MIC (Candida albicans [3]): 2 µg/mL

Compound: O=C(N[C@@H](Cn1ccnc1)C(=O)NCc1ccccc1)c1ccc2ccccc2c1
- MIC (Candida albicans [5]): 0.25 µg/mL (≈ 0.627 µM)

Compound: Cc1cccc(C)c1[Se]C(Cn1ccnc1)c1ccc(Cl)cc1 (centres undefined)
- MIC (Candida albicans [3]): 0.03 µg/mL

Compound: C[C@H](NC(=O)c1ccc2c(c1)OCCO2)C(=O)NCc1ccncc1
- MIC (Candida albicans [5]): 0.125 µg/mL (≈ 0.366 µM)

Compound: Cc1cccc(C)c1[Se]C(Cn1ccnc1)c1ccc(F)cc1 (centres undefined)
- MIC (Candida albicans [6]): 0.03 µg/mL (≈ 0.0804 µM)

Compound: CCC/C=C/C=C/C=C(\C)[C@@H]1OC[C@H](C)[C@H](OC)[C@H]1OC(=O)CN
- IC50 (Candida albicans [10]): 0.47 µM

Compound: CC(C)[C@H](NC(=O)c1ccc2c(c1)OCCO2)C(=O)NCc1cccnc1
- MIC (Candida albicans [5]): 0.125 µg/mL (≈ 0.338 µM)

Compound: CC(C)[C@@H](C)/C=C/[C@@H](C)[C@H]1CC[C@H]2C3=CC=C4C[C@@H](O)CC[C@]4(C)[C@H]3CC[C@]12C [ERGOSTEROL]
- MIC90 (Candida albicans [11]): 512 µg/mL (≈ 1290 µM)

Compound: O=C(O)c1cc(O)c(O)c(O)c1 [GALLIC ACID]
- MIC (Nakaseomyces glabratus): 12.5 µg/mL (≈ 73.5 µM)

Second part, led by results:

- MIC50 (Candida albicans [1]): ≤ 0.001 µg/mL
Compound: O[C@@](Cn1cnnn1)(c1ccc(F)cc1F)C(F)(F)c1ccc(-c2ccc(OC(F)(F)F)cc2)cn1

- MIC50 (Trichophyton rubrum [2]): > 64 µg/mL
Compound: OC(Cn1cnnn1)(c1ccc(F)cc1F)C(F)(F)c1ccc(C#Cc2ccc(F)cc2)cn1 (centres undefined)

- MIC50 (Candida albicans [3]): 0.031 µg/mL
- MIC50 (Trichophyton rubrum [2]): 8 µg/mL (≈ 13.7 µM)
Compound: N#Cc1ccc(COc2ccc(C#Cc3ccc(C(F)(F)C(O)(Cn4cnnn4)c4ccc(F)cc4F)nc3)cc2)cc1 (centres undefined)

- MIC80 (Trichophyton rubrum [4]): 0.125 µg/mL (≈ 0.248 µM)
Compound: O=c1n(-c2ccc(C(F)(F)C(O)(Cn3cnnn3)c3ccc(F)cc3F)nc2)cnn1C1CCCC1 (centres undefined)

- MIC80 (Trichophyton rubrum [4]): 2 µg/mL (≈ 3.95 µM)
- MIC50 (Trichophyton rubrum [2]): 2 µg/mL (≈ 3.95 µM)
- MIC80 (Nannizzia gypsea): 4 µg/mL (≈ 7.9 µM)
Compound: CC(C)(C)Cn1ncn(-c2ccc(C(F)(F)C(O)(Cn3cnnn3)c3ccc(F)cc3F)nc2)c1=O (centres undefined)

- MIC80 (Trichophyton rubrum [4]): 2 µg/mL (≈ 3.86 µM)
- MIC50 (Trichophyton rubrum [2]): 2 µg/mL (≈ 3.86 µM)
- MIC80 (Nannizzia gypsea): 4 µg/mL (≈ 7.71 µM)
Compound: O=c1n(-c2ccc(C(F)(F)C(O)(Cn3cnnn3)c3ccc(F)cc3F)nc2)cnn1C1CCCCC1 (centres undefined)

- MIC80 (Pichia kudriavzevii): 0.003 µg/mL (≈ 0.00678 µM)
Compound: CC(C)Cc1ccc([C@H](C)C(=O)NC[C@](O)(Cn2cncn2)c2ccc(F)cc2F)cc1

- MIC80 (Pichia kudriavzevii): 0.007 µg/mL (≈ 0.0146 µM)
Compound: C[C@H](C(=O)NC[C@](O)(Cn1cncn1)c1ccc(F)cc1F)c1ccc(-c2ccccc2)c(F)c1

- MIC50 (Candida albicans [8]): 0.5 µg/mL (≈ 1.53 µM)
- IC50 (Cytochrome P450 3A4): 30.5 µM
- MIC50 ([Candida] auris): 0.8 µg/mL
Compound: CC(C)(C)c1ccc(-c2nnc(Nc3ccc(Cl)cc3)o2)cc1
- IC50 (Candida albicans [7]): 0.9 µg/mL (≈ 2.75 µM)

- MIC (Candida albicans [9]): 0.25 µg/mL (≈ 0.392 µM)
Compound: Clc1ccc(C(Cn2ccnc2)[Se][Se]C(Cn2ccnc2)c2ccc(Cl)cc2Cl)c(Cl)c1 (centres undefined)

- MIC50 (Candida albicans [3]): 0.007 µg/mL
- MIC50 (Aspergillus fumigatus): 0.25 µg/mL (≈ 0.428 µM)
Compound: N#Cc1ccc(COc2ccc(C#Cc3ccc(C(F)(F)[C@](O)(Cn4cnnn4)c4ccc(F)cc4F)nc3)cc2)cc1 [VT-1598]
